Like-named read-outs stand apart in the source and are kept apart here.
Legend:
[1] = molecular target: T1, mouse RORγ (Mus musculus, UniProt P51450); test: Luciferase reporter gene assay of inhibitory effect against RORγ transcriptional activity (GAL4-mRORγ plasmid in CHO cells); assay type: cell-based
T1 construct: mouse, NM_011281.2 and from Ile251 to Lys516; expressed in transfected cells; host or cells: CHO cells (transient co-transfection with pG5-Luc reporter)
T1 sequence (P51450 251-516): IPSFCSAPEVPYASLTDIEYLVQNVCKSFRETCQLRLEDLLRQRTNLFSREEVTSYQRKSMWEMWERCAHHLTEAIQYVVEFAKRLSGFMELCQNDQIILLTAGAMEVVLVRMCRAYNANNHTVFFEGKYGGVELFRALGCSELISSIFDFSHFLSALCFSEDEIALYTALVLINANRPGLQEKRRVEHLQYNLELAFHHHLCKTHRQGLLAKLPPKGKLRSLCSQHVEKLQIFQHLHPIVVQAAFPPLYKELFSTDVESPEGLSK
Summary of the method: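 CHO cells transiently co-transfected with GAL4-mouse RORγ LBD (Ile251–Lys516) and GAL4-dependent luciferase reporter; eight compound concentrations, 0.1% DMSO, 2 days at 37 °C. Luminescence as %-of-vehicle control; EC50 by curve fit, cytotoxic concentrations excluded.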

[2] = molecular target: T2, human RORγ (Homo sapiens, UniProt P51449); test: Luciferase reporter gene assay of inhibitory effect against RORγ transcriptional activity (GAL4-hRORγ plasmid in CHO cells); assay type: cell-based
T2 construct: human, NM_005060.3 and from Ser253 to Lys518; expressed in transfected cells; host or cells: CHO cells (transient co-transfection with pG5-Luc reporter)
T2 sequence (P51449 253-518): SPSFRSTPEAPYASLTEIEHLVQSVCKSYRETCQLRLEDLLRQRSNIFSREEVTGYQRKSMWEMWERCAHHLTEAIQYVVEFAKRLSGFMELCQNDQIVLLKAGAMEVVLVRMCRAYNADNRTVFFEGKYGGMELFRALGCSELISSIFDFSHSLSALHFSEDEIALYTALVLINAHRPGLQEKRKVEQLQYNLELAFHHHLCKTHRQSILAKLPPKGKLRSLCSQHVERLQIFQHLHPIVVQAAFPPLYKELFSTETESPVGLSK

SMILES | EC50 ([1]; read-out: LUC EC50 (μM) mRORg) | EC50 ([2]; read-out: LUC EC50 (μM) hRORg) | EC50 ([1]; read-out: LUC EC50 mRORg) | EC50 ([2]; read-out: LUC EC50 hRORg)
CC(C)CCc1nnc(CCC(=O)NCc2cccc3cn[nH]c23)n1C1CC1 [Example F-150] | > 3 µM | > 3 µM |  | 
Cc1ccc(NC(=O)CCc2nnc([C@H]3C[C@H](CC(C)(C)C)C3)n2C2CC2)c(C)c1 [Example F-425] | < 3 µM | < 3 µM |  | 
Cc1ccc(NC(=O)CC(c2nnc([C@H]3C[C@@H](CC(C)C)C3)n2C2CC2)C(F)(F)CO)c(C)c1 (mixture of isomers) [Example F-617] |  |  | < 3 µM | < 3 µM
Cc1ccc(NC(=O)C[C@H](CCC(=O)O)c2noc(-c3noc(CC(C)C)c3C)c2C2CC2)c(Cl)c1 [Example E-29] | < 3 µM | < 3 µM |  | 
C=CCC(CC(=O)Nc1ccc(C)cc1C)c1nnc(CCCC(C)(C)C)n1C1CC1 (racemic) [Example F-306] | < 3 µM | < 3 µM |  | 
Cc1c(Cl)cccc1NC(=O)CCc1nnc(CC(=O)O)n1C1CC1 [Example F-264] | > 3 µM | > 3 µM |  | 
Cc1ccc(NC(=O)C[C@H](CCO)c2nnc(-c3cc(CC(C)C)on3)n2C2CC2)c(C)c1 [Example F-659] |  |  | < 3 µM | < 3 µM
Cc1ccc(NC(=O)C[C@H](CC(C)C)c2nnc(-c3cc(CCC(C)C)on3)n2C2CC2)c(C)c1 [Example F-627] |  |  | < 3 µM | < 3 µM
Cc1ccc(NC(=O)C[C@H](CCCO)c2noc([C@H]3C[C@@H](CC(C)(C)C)C3)c2C2CC2)c(C)c1O [Example F-699] |  |  | < 3 µM | < 3 µM
CCn1c(CCC(=O)Nc2cc(Cl)cc(Cl)c2)nnc1C1Cc2ccccc2C1 [Example F-29] | > 3 µM | > 3 µM |  | 
CCn1c(CCCC(C)(C)C)nnc1[C@H]1CN(C(C)=O)C[C@@H]1C(=O)Nc1ccc(C)cc1C (racemic) [Example F-351] | < 3 µM | < 3 µM |  | 
CC(=O)N1C[C@H](C(=O)Nc2ccc(C)cc2C)[C@@H](c2nnc(-c3ccc(C(C)C)cc3)n2C2CC2)C1 [Example F-411] | < 3 µM | < 3 µM |  | 
CC(=O)N1C[C@H](C(=O)Nc2ccc(C)cc2C)[C@@H](c2nnc(C3CC3CC(C)C)n2C2CC2)C1 (mixture of isomers) [Example F-340] | < 3 µM | > 3 µM |  | 
Cc1ccc(NC(=O)C[C@H](CCC(=O)O)c2nnc([C@H]3C[C@@H](CC(C)(C)C(C)C)C3)n2C2CC2)c(Cl)c1 [Example F-708] |  |  | < 3 µM | < 3 µM
Cc1ccc(NC(=O)CC(CCCO)c2nnc(CCCC(C)C)n2C2CC2)c(C)c1 (racemic) [Example F-214] | < 3 µM | < 3 µM |  | 
CN[C@@H](CC(=O)Nc1ccc(C)cc1C)c1nnc(CCCC(C)(C)C)n1C1CC1 [Example F-353] | < 3 µM | < 3 µM |  | 
Cc1ccc(NC(=O)CC(CO)c2nnc(CCCC(C)(C)C)n2C2CC2)c(C)c1 (racemic) [Example F-497] |  |  | < 3 µM | < 3 µM
Cc1ccc(NC(=O)CCc2noc([C@H]3C[C@@H](CC(C)(C)C)C3)c2C2CC2)c(C)c1 [Example F-721] |  |  | < 3 µM | < 3 µM
Cc1ccc(NC(=O)CCc2nnc(CCC3CCCCC3)n2CC(F)(F)F)c(C)c1 [Example F-142] | < 3 µM | < 3 µM |  | 
Cc1cc(O)ccc1CNC(=O)CCc1nnc(CCC(C)C)n1C1CC1 [Example F-114] | > 3 µM | > 3 µM |  | 
CC(=O)N1C[C@H](C(=O)Nc2ccc(C)cc2C)[C@@H](c2nnc(CCC3CCCCC3)n2C2CC2)C1 (racemic) [Example F-191] | < 3 µM | < 3 µM |  | 
CC(=O)N1C[C@H](C(=O)Nc2ccc(Cl)cc2C)[C@@H](c2nnc(-c3cc(CC(C)C)on3)n2C2CC2)C1 [Example F-613] |  |  | < 3 µM | < 3 µM
Cc1ccc(NC(=O)CC(CC(N)=O)c2nnc(CCCC(C)C)n2C2CC2)c(C)c1 (racemic) [Example F-253] | > 3 µM | > 3 µM |  | 
Cc1ccc(NC(=O)CCc2nnc(C3(O)CC(CC(C)C)C3)n2C2CC2)c(C)c1 (single isomer, unassigned) [Example F-429] | < 3 µM | < 3 µM |  | 
Cc1ccc(NC(=O)C[C@H](CCC(=O)O)c2noc(-c3cc(CC(C)C)on3)c2C(F)(F)F)c(F)c1 [Example E-12] | < 3 µM | > 3 µM |  | 
COc1cc(C)ccc1CNC(=O)CCc1nnc(CC[C@H]2CC[C@H](C)CC2)n1C1CC1 [Example F-241] | < 3 µM | < 3 µM |  | 

SMILES | EC50 ([1]; read-out: LUC EC50 (μM) mRORg) | EC50 ([2]; read-out: LUC EC50 (μM) hRORg) | EC50 ([1]; read-out: LUC EC50 mRORg) | EC50 ([2]; read-out: LUC EC50 hRORg)
CC(=O)N[C@@H](CC(=O)Nc1ccc(C)cc1C)c1nnc(CCCC(C)(C)C)n1C1CC1 [Example F-344] | < 3 µM | < 3 µM |  | 
Cc1c(Cl)cccc1NC(=O)CC(CO)c1nnc(CCC(C)C)n1C1CC1 (racemic) [Example F-167] | < 3 µM | < 3 µM |  | 
CCn1c(CCC(=O)Nc2cccc(Cl)c2C)nnc1CCC(C)C [Example F-52] | < 3 µM | > 3 µM |  | 
Cc1cccnc1CNC(=O)CCc1nnc(CCC(C)C)n1C1CC1 [Example F-110] | > 3 µM | > 3 µM |  | 
Cc1cc(Cl)ccc1NC(=O)C[C@H](CCO)c1nnc(C2CC3(CCC(F)(F)CC3)C2)n1C1CC1 [Example F-624] |  |  | < 3 µM | < 3 µM
Cc1ccc(NC(=O)C(C)C(CCOCc2ccccc2)c2nnc([C@H]3C[C@@H](CC(C)C)C3)n2C2CC2)c(C)c1 (mixture of isomers) [Example F-488] | < 3 µM | > 3 µM |  | 
Cc1c(Cl)cccc1NC(=O)CC(CCO)c1nnc(CCCC(C)C)n1C1CC1 (racemic) [Example F-199] | < 3 µM | < 3 µM |  | 
Cc1ccc(NC(=O)C[C@@H](CC#N)c2nnc([C@H]3C[C@@H](CC(C)C)C3)n2C2CC2)c(C)c1 [Example F-464] | < 3 µM | > 3 µM |  | 
CC(=O)N1C[C@H](C(=O)Nc2ccc(C)cc2C)[C@@H](c2nnc(-c3ccc(C(C)C)cc3)n2C2CC2)C1 (racemic) [Example F-319] | < 3 µM | < 3 µM |  | 
COc1cc(C)ccc1CNC(=O)CC(CCO)c1nnc(CCCC(C)C)n1C1CC1 (racemic) [Example F-202] | < 3 µM | < 3 µM |  | 
CC(=O)N1CC(c2noc([C@H]3C[C@@H](CC(C)(C)C)C3)c2C2CC2)[C@@H](C(=O)Nc2ccc(C)cc2Cl)C1 (some centres unmarked) [Example F-686] |  |  | < 3 µM | < 3 µM
CC(=O)N1C[C@H](C(=O)Nc2ccc(C)cc2C)[C@@H](c2nnc(-c3cc(CC(C)C)on3)n2C2CC2)C1 [Example F-408] | < 3 µM | < 3 µM |  | 
Cc1ccc(NC(=O)CCc2nnc(CCC3CCC(F)(F)CC3)n2C2CC2)c(C)c1 [Example F-256] | < 3 µM | < 3 µM |  | 
Cc1ccc(NC(=O)CCc2nnc(-c3ccc(C(C)C)cc3)n2C2CC2)c(C)c1 [Example F-320] | < 3 µM | < 3 µM |  | 
Cc1ccc(NC(=O)C[C@H](OCCO)c2nnc([C@H]3C[C@@H](CC(C)C)C3)n2C2CC2)c(C)c1 [Example F-434] | < 3 µM | < 3 µM |  | 
Cc1cc(C)c(NC(=O)C[C@H](CCC(=O)O)c2noc([C@H]3C[C@@H](CC(C)(C)C)C3)c2C2CC2)cn1 [Example F-675] |  |  | < 3 µM | < 3 µM
Cc1ccc(NC(=O)C[C@H](Cc2nnn[nH]2)c2noc([C@H]3C[C@@H](CC(C)C)C3)c2C2CC2)c(C)c1 [Example F-641] |  |  | < 3 µM | < 3 µM
CCn1c(CCC(=O)Nc2cccc3ccccc23)nnc1CCC1CCCCC1 [Example F-13] | < 3 µM | < 3 µM |  | 
Cc1ccc(NC(=O)C[C@H](CC(N)=O)c2noc([C@H]3C[C@@H](CC(C)C)C3)c2C2CC2)c(C)c1 [Example F-642] |  |  | < 3 µM | < 3 µM
Cc1ccc(NC(=O)CCc2nnc(C(O)CCC(C)(C)C)n2C2CC2)c(C)c1 (racemic) [Example F-367] | < 3 µM | > 3 µM |  | 
Cc1c(Cl)cccc1NC(=O)CCc1nnc(C2CN(CC(C)C)C2)n1C1CC1 [Example F-260] | > 3 µM | > 3 µM |  | 
Cc1ccc(NC(=O)CC(c2nnc([C@H]3C[C@@H](CC(C)C)C3)n2C2CC2)C2CNC2)c(C)c1 (mixture of isomers) [Example F-468] | > 3 µM | > 3 µM |  | 
CC(C)(C[C@H]1C[C@@H](c2onc(C(CCC(=O)O)CC(=O)Nc3ccc(C(=O)O)cc3Cl)c2C2CC2)C1)C(=O)O (some centres unmarked) [Example F-746] |  |  | > 3 µM | > 3 µM
CC(=O)c1ccc(NC(=O)C[C@H](CCC(=O)O)c2noc([C@H]3C[C@@H](CC(C)(C)CO)C3)c2C2CC2)c(Cl)c1 [Example F-731] |  |  | > 3 µM | > 3 µM
CCc1ccccc1CNC(=O)CCc1nnc(CCC(C)C)n1C1CC1 [Example F-125] | > 3 µM | > 3 µM |  | 
CC(=O)N1C[C@H](C(=O)Nc2ccc(C)cc2C)[C@@H](c2nnc(C3CC(C(C)C)C3)n2C2CC2)C1 (some centres unmarked) [Example F-298] | < 3 µM | < 3 µM |  | 

Reference: patent US20160137639A1, “TRIAZOLE-ISOXAZOLE COMPOUND AND MEDICAL USE THEREOF” (JAPAN TOBACCO INC., priority 2012, published 2016)
